Test results reported in US11723886B2, “Targeting ocular diseases with novel APE1/Ref-1 inhibitors” (Indiana University Research and Technology Corporation, priority 2018, dated 2023).
“Also recorded” adds a separate entry of the source.

Columns and labels:
[1] = molecular target: Ref-1/APE1 endonuclease activity (Homo sapiens, UniProt P27695); conditions: cited from earlier work
[2] = system: retinal and choroidal endothelial cells; conditions: cited from earlier work
[3] = system: NF-κB and HIF-1α activity; conditions: retinal pigment epithelial cells; concomitant reduction in VEGF expression; cited from earlier work
[4] = system: laser-induced choroidal neovascularization; conditions: delivered intravitreally; cited from earlier work
[5] = system: retinal neovascularization; conditions: delivered intravitreally; cited from earlier work
[6] = system: laser-induced choroidal neovascularization
[7] = system: APE1 repair activity in neurons; conditions: cited from earlier work
[8] = system: total vessel density and VEGF expression; conditions: stroke in type one diabetes mellitus rats; cited from earlier work

Ref-1/APE1 endonuclease activity, sequence (P27695 whole entry): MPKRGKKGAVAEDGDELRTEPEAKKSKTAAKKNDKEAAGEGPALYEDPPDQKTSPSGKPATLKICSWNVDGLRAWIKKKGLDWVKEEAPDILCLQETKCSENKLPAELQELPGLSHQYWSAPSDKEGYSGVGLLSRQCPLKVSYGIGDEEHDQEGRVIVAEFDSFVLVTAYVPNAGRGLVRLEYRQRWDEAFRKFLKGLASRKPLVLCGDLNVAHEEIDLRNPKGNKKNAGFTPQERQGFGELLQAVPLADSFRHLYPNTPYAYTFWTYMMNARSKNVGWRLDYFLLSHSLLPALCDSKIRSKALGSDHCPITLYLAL

CCCCCCCCC/C(=C\C1=C(C)C(=O)C(OC)=C(OC)C1=O)C(=O)O [APX3330]
effect on endonuclease / APE1 activity [1]: does not affect the protein's endonuclease activity; also recorded: do not inhibit APE1 activity
in vitro angiogenesis (proliferation, migration, tube formation) [2]: block in vitro angiogenesis
NF-κB and HIF-1α activity [3]: reduced both NF-κB and HIF-1α activity
neovascularization, L-CNV [4]: reduced neovascularization
neovascularization, VLDLR knockout mouse [5]: reduced neovascularization
intraocular or systemic toxicity in vivo ([6]; i.p. dosing in L-CNV mice): not observed obvious intraocular or systemic toxicity
L-CNV volume ([6]; i.p., 50 mg/kg twice daily, 5 days on/two days off, two weeks): significantly reduced L-CNV volume
APE1 repair activity in neurons [7]: can enhance APE1 repair activity
total vessel density and VEGF expression [8]: significantly decreased total vessel density and VEGF expression
